The subject of this assay is IL-17-induced pulmonary inflammation. Put plainly: IL-17-induced pulmonary inflammation in BALB/c mice. Type of assay: in vivo, mouse. As for the experimental part: FIG. 5 provides bar graph and staining data showing that a cell-permeable CC′ loop decoy peptide inhibits IL-17- and IL-25-induced pulmonary inflammation. Wild-type (WT) female BALB/c mice (n=4 mice per group) were pretreated with DMSO, scrambled peptide, or the CC′ loop decoy peptide for 4 hours, after which they were administered saline, IL-17, or IL-25 intranasally. Mice were sacrificed and analyzed 16 hours after injection with IL-17 or 4 days after injection with IL-25. […] All experiments were performed three times. *P<0.05.
It has been shown that Act1 plays an essential role in IL-17- and IL-25-mediated pulmonary inflammation. Thus, the inventors examined whether the Act1 SEFIR domain CC′ loop decoy peptide ameliorated IL-17- and IL-25-induced airway inflammation in vivo. BALB/c mice were pretreated with scrambled peptide or with the Act1 SEFIR domain CC′ loop decoy peptide for 4 hours, after which we injected the mice intranasally with IL-17 or IL-25. […] Consistently, IL-17-induced lung and airway recruitment of granulocytes was reduced in mice pretreated with the CC′ loop decoy peptide compared to that in mice pretreated with the scrambled peptide (FIG. 5C). The lower grade of pulmonary inflammation in the mice treated with the CC′ loop decoy peptide correlated with the decreased IL-17-dependent expression of genes encoding MCP-1 and GM-CSF in the lung tissues (FIG. 5D). […] IL-25-induced lung and airway recruitment of granulocytes, predominantly eosinophils, as well as mucin production, as determined by Periodic acid-Schiff (PAS) staining, were reduced in mice pretreated with the CC′ loop decoy peptide compared to that in mice pretreated with the scrambled peptide (FIG. 5G). The decreased pulmonary inflammation in […] correlated with decreased expression of genes encoding the TH2-type cytokines IL-5 and IL-13 in the lungs (FIG. 5H).
Intranasal injection of mice with IL-17 and IL-25: Wild-type BALB/c female mice were pretreated with dimethyl sulfoxide (DMSO, the solvent for peptides), scrambled peptide, or the CC′ loop decoy peptide for 4 hours, after which they underwent intranasal administration of saline, IL-17 (4 μg/mouse), or IL-25 (4 μg/mouse). For IL-25-treated mice, decoy peptides were administrated daily through intranasal injection after pretreatment. Mice were anesthetized with isoflurane and sacrificed. BAL fluid was collected 16 hours after injection with IL-17 or 4 days after injection with IL-25. A total of 0.7 ml of HL-1 medium (BioWhittaker®) was used to obtain BAL fluid through trachea with a blunt needle and a 1-ml syringe. Cytospin slide preparations were obtained with a Shandon CytoSpin III Cytocentrifuge (Shandon/Thermo Scientific). Differential leukocyte counts were obtained on cytospin slide preparations after incubation with Diff Quik Giemsa stain. Cytokines in the BAL were analyzed by MultipleX plate (Invitrogen®). H&E and PAS staining were performed on lung tissues after fixation in 10% neutral-buffered formalin and paraffin embedding to detect pulmonary inflammation and for assessment of goblet cell metaplasia and mucin accumulation in airway epithelial cells.

Setting [1] is: 4 hours pretreatment, intranasal IL-17, 16 hours, vs scrambled peptide.

In the case of “DRQIKIWFQNRRMKWKKLDEDEHGLHTKY [CC′ loop decoy peptide]”, under setting [1], the “GM-CSF in BAL fluid” value is “substantially reduced”, the “MCP-1 in BAL fluid” value is “substantially reduced” and the “neutrophil counts in BAL fluid” value is recorded as “substantially reduced”. Moreover, the “neutrophil counts in BAL fluid” value (4 hours pretreatment, intranasal IL-17, 16 hours, vs scrambled peptide, listed as CC′ peptide) is “reduced accumulation”. The “dose dependence of inhibition of IL-17-induced pulmonary inflammation” value (data not shown) was “dose-dependent manner”. Further, the “IL-17-dependent expression of genes encoding MCP-1 and GM-CSF in lung tissues” value (real-time RT-PCR) was “decreased”. Further, the “IL-17-induced lung and airway recruitment of granulocytes (H&E)” value (vs scrambled peptide) is “reduced”.

(Values after patent publication US9611295B2, “Treatment of IL-17 mediated disease by blocking SEFIR-SEFIR interactions” (THE CLEVELAND CLINIC FOUNDATION, priority 2011, dated 2017).)
